This passage reports IC50 and half-life results from ChEMBL document CHEMBL6083232, “A review on synthetic inhibitors of dual-specific tyrosine phosphorylation-regulated kinase 1A (DYRK1A) for the treatment of Alzheimer's disease (AD)” (Bioorg Med Chem, 2024).

SMILES strings stand for the structures. pIC50: −log10 of the molar value.

Cyclin-dependent kinase 1, sequence (P06493 whole entry): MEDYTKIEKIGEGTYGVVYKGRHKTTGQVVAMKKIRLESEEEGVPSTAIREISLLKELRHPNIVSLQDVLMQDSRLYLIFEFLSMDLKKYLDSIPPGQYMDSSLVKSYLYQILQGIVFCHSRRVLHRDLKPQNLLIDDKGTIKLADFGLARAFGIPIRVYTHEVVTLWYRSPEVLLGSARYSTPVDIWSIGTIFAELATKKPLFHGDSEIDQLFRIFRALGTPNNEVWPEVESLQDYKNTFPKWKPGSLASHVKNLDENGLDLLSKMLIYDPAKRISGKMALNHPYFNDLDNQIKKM
Dual specificity protein kinase CLK1, sequence (P49759 whole entry): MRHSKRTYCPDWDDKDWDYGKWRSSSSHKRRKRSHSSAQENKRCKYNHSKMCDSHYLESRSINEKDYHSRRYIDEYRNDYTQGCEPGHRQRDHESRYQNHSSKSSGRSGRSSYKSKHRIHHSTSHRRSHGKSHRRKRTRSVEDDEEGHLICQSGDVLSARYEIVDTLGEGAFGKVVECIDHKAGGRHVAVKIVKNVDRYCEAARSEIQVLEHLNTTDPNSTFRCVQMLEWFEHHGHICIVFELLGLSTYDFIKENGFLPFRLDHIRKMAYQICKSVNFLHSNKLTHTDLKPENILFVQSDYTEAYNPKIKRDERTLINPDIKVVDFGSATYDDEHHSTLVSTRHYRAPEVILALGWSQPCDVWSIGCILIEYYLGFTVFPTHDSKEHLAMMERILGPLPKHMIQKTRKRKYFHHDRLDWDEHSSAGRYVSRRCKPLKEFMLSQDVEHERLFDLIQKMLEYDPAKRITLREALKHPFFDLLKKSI

For the first data set, the target named is T1, Dual specificity tyrosine-phosphorylation-regulated kinase 1A (Homo sapiens, UniProt Q13627). The experiment in a line: Inhibition of human DYRK1A in presence of ATP by Kinomescan method.
Turning to `NCC(Nc1nccc(-c2n[nH]c3nc(NC4CCC(N)CC4)ncc23)n1)c1cccc(Cl)c1` (stereo not given), the pIC50 (in general, the IC50 on a negative log10 scale, so that one unit is a factor of ten) was 8.34. Same read-out and setting: the figure for `COC(=N)c1nc2ccc3ncnc(Nc4ccc(F)cc4Br)c3c2s1` is 8.52; for `CCn1c2cc(OC)ccc2c2ccnc(C)c21` it is 5.05; for `NC1CCC(Nc2ncc3c(-c4ccnc(NCc5ccsc5)n4)n[nH]c3n2)CC1` (stereo not given) it is 7.85. Turning to `COc1cc2[nH]c(=O)c(C(=O)Nc3cc(C(=O)NCc4cccc(Cl)c4)ccc3C)cc2cc1OCCN1CCOCC1`, the pIC50 is 7.80. As for `NC1CCC(Nc2ncc3c(-c4ccnc(NCc5ccccc5)n4)n[nH]c3n2)CC1` (stereo not given), the pIC50 is 8.22.

The next data set addresses Dual specificity protein kinase CLK1 (Homo sapiens, UniProt P49759). The experiment in a line: Inhibition of CLK1 (unknown origin).
Regarding `COc1ccc2cc3c4c(cc(OC)c(OC)c4c2c1)C(=O)N3` [ARISTOLACTAM BIII], the pIC50 is 7.30.

The next data set concerns the target T1, Dual specificity tyrosine-phosphorylation-regulated kinase 1A. The experiment in a line: Inhibition of human recombinant 6xHis-tagged DYRK1A catalytic domain (1 to 502 residues) extracted from Escherichia coli BL21 (DE3) cells incubated for 30 mins by Bradford's reagent based analysis.
On to `Oc1ccc(-c2cnc3[nH]cc(-c4ccc(O)c(O)c4)c3c2)cc1O`, for which the pIC50 is 7.92. For `COc1ccc(-c2c[nH]c3ncc(-c4ccc(O)c(O)c4)cc23)cc1OC`, the pIC50 is 6.33. On the same count and under the same terms, the figure for `COc1ccc(-c2c[nH]c3ncc(-c4ccc(OC)c(OC)c4)cc23)cc1` is 6.34; for `COc1ccc(-c2cnc3[nH]cc(-c4ccc(F)cc4)c3c2)cc1OC` it is 5.84. Regarding `COc1ccc(-c2cnc3[nH]cc(-c4ccc(OC)c(OC)c4)c3c2)cc1OC`, the pIC50 was 4.24.

In the case of `Oc1ccc(-c2cnc3[nH]cc(-c4ccc(F)c(F)c4)c3c2)cc1O`, the pIC50 was 4.25. On to `COc1ccc(-c2cnc3[nH]cc(-c4ccc(F)c(F)c4)c3c2)cc1OC`, for which the pIC50 was 5.28. For the compound `COc1ccc(-c2c[nH]c3ncc(-c4ccc(OCc5ccccc5)c(OCc5ccccc5)c4)cc23)cc1OC`, the pIC50 is 4.73.

In another data set the target is Dual specificity tyrosine-phosphorylation-regulated kinase 1B (Homo sapiens, UniProt Q9Y463). The experiment in a line: Inhibition of DYRK1B (unknown origin) by DiscoverX KINOMEscan assay.
Dual specificity tyrosine-phosphorylation-regulated kinase 1B, sequence (Q9Y463 whole entry): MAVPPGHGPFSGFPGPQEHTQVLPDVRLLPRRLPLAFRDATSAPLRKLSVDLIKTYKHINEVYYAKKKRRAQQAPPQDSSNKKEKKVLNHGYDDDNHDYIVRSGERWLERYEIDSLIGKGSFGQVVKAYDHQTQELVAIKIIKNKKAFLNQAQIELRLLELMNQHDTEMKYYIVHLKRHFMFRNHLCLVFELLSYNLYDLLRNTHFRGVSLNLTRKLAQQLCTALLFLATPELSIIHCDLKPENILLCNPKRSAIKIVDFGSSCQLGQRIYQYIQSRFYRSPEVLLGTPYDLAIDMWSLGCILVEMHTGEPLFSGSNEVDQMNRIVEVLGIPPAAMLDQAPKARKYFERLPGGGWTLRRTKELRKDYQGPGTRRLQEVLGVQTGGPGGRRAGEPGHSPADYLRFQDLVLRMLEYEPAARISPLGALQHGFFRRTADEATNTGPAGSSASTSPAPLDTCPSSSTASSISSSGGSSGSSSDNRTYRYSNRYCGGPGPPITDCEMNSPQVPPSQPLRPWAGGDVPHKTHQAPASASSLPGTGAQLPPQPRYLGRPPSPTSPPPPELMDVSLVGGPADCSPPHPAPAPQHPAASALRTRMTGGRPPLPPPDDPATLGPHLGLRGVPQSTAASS
Regarding `O=C(Nc1ccc(C(=O)NCc2ccccc2)cc1)Nc1nc2ccc(O)cc2s1`, the negative logarithm of the IC50 (pIC50) is 7.25.

A further data set concerns the target T1, Dual specificity tyrosine-phosphorylation-regulated kinase 1A. The experiment in a line: Inhibition of DYRK1A (unknown origin) extracted from Escherichia coli BL21 (DE3) cells measured for 60 mins by FRET assay.
In the case of `CN(Cc1ccco1)c1ncnc2ccc(-c3ccc4c(c3)OCO4)cc12`, the pIC50 was 6.82.

Consider `Oc1ccc(-c2cnc3cnc(-c4ccc(O)cc4)nc3c2)cc1`, for which the pIC50 is 6.05. In turn, `O=C1NC(Nc2ccc(O)cc2)=N/C1=C\c1ccc2c(c1)OCO2` gave a pIC50 of 7.08. The compound `CCCC#Cc1ccnc2[nH]cc(-c3ccnc(N)n3)c12` gave a pIC50 of 7.70.

System in another data set: not listed separately
Put plainly: Half life in human. Type of data set: ADME.
Regarding `CN1CCN(C(=O)c2ccc(NC(=O)Nc3nc4ccc(O)cc4s3)cc2)CC1`, the half-life (in general, the time needed for the level to fall by half in the phase considered) is over 1 h.

For another data set, the target named is T1, Dual specificity tyrosine-phosphorylation-regulated kinase 1A. The experiment in a line: Inhibition of DYRK1A (unknown origin).
`CC(C)N1CCC(n2cc(C(=O)Nc3cc4cc(-c5cnn(C)c5)ccc4cn3)cn2)CC1` had a pIC50 of 9.00. As for `Cc1nc2ccc(-c3ccnc(N)c3)nc2n1-c1ccc(N2CCN(CCOCCOCCC(=O)N3CCN(Cc4ccc(CNc5cccc6c5C(=O)N(C5CCC(=O)NC5=O)C6)cc4)CC3)CC2)c(F)c1` (stereo not given), the pIC50 is over 5.00. The compound `COCC(CC(C)C)NC1=N/C(=C\c2ccc3ncsc3c2)C(=O)N1C` (stereo not given) gave a pIC50 of over 8.30. The compound `COc1nc(NC2CCN(C(C)=O)CC2F)nn2ccc(-c3ccc4nnn(CC(F)F)c4c3)c12` (stereo not given) had a pIC50 of 9.00. As to `O=C(NC1=Cc2ccc(O)cc2C1)Nc1ccc(NC(=O)c2ccc(O)cc2)cc1`, the pIC50 is 8.11. Compound `CC(C)Nc1cncc(-c2ccc3cnc(NC(=O)C4CCN(C)CC4)cc3c2)n1` gave a pIC50 of 9.00. Turning to `CN1CCN(c2ccc(-c3ncnc4ccc(-c5ccnc(N)c5)cc34)cc2F)CC1`, the pIC50 is over 7.00. As to `O=c1[nH]c2ccc(-c3cncc(NCc4ccccc4)n3)cc2[nH]1`, the pIC50 was 9.00. Take `COCCn1nc2c(c1C#N)-c1cnc3[nH]cc(c3c1)-c1cn(nc1C(F)(F)F)CCCC(=O)N(C)C2`: the pIC50 was over 7.30. `Cn1cc(C(=O)Nc2ncc(-c3ccc(C#N)cc3)s2)ccc1=O`: the pIC50 was over 8.00.

Another data set concerns the target Cyclin-dependent kinase 1 (Homo sapiens, UniProt P06493). The experiment in a line: Inhibition of CDK1 (unknown origin).
In turn, `COc1ccc2cc3c4c(cc(OC)c(OC)c4c2c1)C(=O)N3` [ARISTOLACTAM BIII] showed a pIC50 of 6.39.

The next data set addresses T2, Dual specificity tyrosine-phosphorylation-regulated kinase 4 (Homo sapiens, UniProt Q9NR20).
T2 sequence (Q9NR20 whole entry): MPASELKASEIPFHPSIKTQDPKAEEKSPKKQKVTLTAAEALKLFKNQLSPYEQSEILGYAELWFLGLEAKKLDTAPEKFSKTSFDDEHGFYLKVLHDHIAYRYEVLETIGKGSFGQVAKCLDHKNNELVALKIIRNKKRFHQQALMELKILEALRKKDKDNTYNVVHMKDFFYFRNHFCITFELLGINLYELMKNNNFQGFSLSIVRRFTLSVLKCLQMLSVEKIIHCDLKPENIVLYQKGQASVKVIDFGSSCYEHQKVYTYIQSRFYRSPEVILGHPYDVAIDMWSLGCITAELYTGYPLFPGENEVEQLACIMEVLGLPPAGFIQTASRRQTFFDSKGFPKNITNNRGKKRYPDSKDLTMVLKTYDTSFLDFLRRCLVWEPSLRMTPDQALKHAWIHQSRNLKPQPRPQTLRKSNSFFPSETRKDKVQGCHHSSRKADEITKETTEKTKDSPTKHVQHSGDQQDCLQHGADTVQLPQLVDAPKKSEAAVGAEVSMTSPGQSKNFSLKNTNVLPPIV
Put plainly: Inhibition of DYRK4 (unknown origin).
Regarding `COc1ccc2cc3c4c(cc(OC)c(OC)c4c2c1)C(=O)N3` [ARISTOLACTAM BIII], the pIC50 was 5.93.

In the next data set the target is T1, Dual specificity tyrosine-phosphorylation-regulated kinase 1A. Put plainly: Inhibition of DYRK1A (unknown origin) by FRET assay.
`COc1ccc2c(c1)[nH]c1c3c(OC)cncc3cc(C#N)c21` gave a pIC50 of 6.74. With `Cc1ccc(NC(=O)c2n[nH]c3ccc(-c4cncc(CN5CCCCC5)c4)cc23)cn1`, the pIC50 is 9.00. Same read-out and setting: the figure for `Cc1nc2ccc(-c3cc(N)nc(N)c3)nc2n1-c1ccccc1` is 8.70; for `CCN1/C(=C/C(C)=O)Sc2cc3oc4ccccc4c3cc21` it is 7.70. Still for that read-out and setting: for `Cc1nc(Nc2ccccc2)c2c(-c3cc(N)nc(N)c3)c[nH]c2n1` the value was 8.70; for `CC(=O)Nc1nc2cc(O)ccc2s1`, 6.40.

`Cc1c(O)cccc1-c1ccc2nc(NC(=O)C3CC3F)sc2c1` (stereo not given) showed a pIC50 of 8.22.
